Assay results: the supplement of paper PMC13380429

How the values were obtained:
Conditions in all cases: 72 h
Caco-2 [1] = test: drug sensitivity score (DSS) for viability; higher = more toxic; extreme values may be limits of the assay
Calu-3 [2] = test: as above
Vero E6 [3] = test: as above
Caco-2 [4] = test: relative viability EC50 (midpoint between 100% and the lowest measured viability); higher = less toxic
Calu-3 [5] = test: as above
Vero E6 [6] = test: as above
Caco-2 [7] = test: cell viability relative to DMSO; higher = less toxic
Calu-3 [8] = test: as above
Vero E6 [9] = test: as above
HepG2 [10] = test: drug sensitivity score (DSS) for viability; higher = more toxic; extreme values may be limits of the assay
U2OS [11] = test: as above
HepG2 [12] = test: relative viability EC50 (midpoint between 100% and the lowest measured viability); higher = less toxic
HepG2 [13] = test: cell viability relative to DMSO; higher = less toxic
U2OS [14] = test: as above

SMILES | drug sensitivity score (Caco-2 [1]) | drug sensitivity score (Calu-3 [2]) | drug sensitivity score (Vero E6 [3]) | relative viability EC50 (Caco-2 [4]) | relative viability EC50 (Calu-3 [5]) | relative viability EC50 (Vero E6 [6]) | cell viability (Caco-2 [7]; 1 nM) | cell viability (Caco-2 [7]; 10 nM) | cell viability (Caco-2 [7]; 100 nM) | cell viability (Caco-2 [7]; 1000 nM) | cell viability (Caco-2 [7]; 10000 nM) | cell viability (Calu-3 [8]; 1 nM) | cell viability (Calu-3 [8]; 10 nM) | cell viability (Calu-3 [8]; 100 nM) | cell viability (Calu-3 [8]; 1000 nM) | cell viability (Calu-3 [8]; 10000 nM) | cell viability (Vero E6 [9]; 1 nM) | cell viability (Vero E6 [9]; 10 nM) | cell viability (Vero E6 [9]; 100 nM) | cell viability (Vero E6 [9]; 1000 nM) | cell viability (Vero E6 [9]; 10000 nM) | drug sensitivity score (HepG2 [10]) | drug sensitivity score (U2OS [11]) | relative viability EC50 (HepG2 [12]) | cell viability (HepG2 [13]; 1 nM) | cell viability (HepG2 [13]; 10 nM) | cell viability (HepG2 [13]; 100 nM) | cell viability (HepG2 [13]; 1000 nM) | cell viability (HepG2 [13]; 10000 nM) | cell viability (U2OS [14]; 1 nM) | cell viability (U2OS [14]; 10 nM) | cell viability (U2OS [14]; 100 nM) | cell viability (U2OS [14]; 1000 nM) | cell viability (U2OS [14]; 10000 nM)
CC(=O)[C@@]1(O)CC[C@H]2[C@@H]3C=C(Cl)C4=CC(=O)[C@@H]5C[C@@H]5[C@]4(C)[C@H]3CC[C@@]21C [CYPROTERONE] | 0 | 0 | 0 | > 10 µM | > 10 µM | > 10 µM | 106% | 89.5% | 112% | 102% | 95% | 99.5% | 101% | 103% | 86.6% | 97.4% | 101% | 107% | 99.5% | 104% | 94.9% | – | – | – | – | – | – | – | – | – | – | – | – | –
N[C@@H](CS)C(=O)O [L-cysteine] | – | 0 | 0 | – | – | – | – | – | – | – | – | – | – | – | – | – | – | – | – | – | – | 0.2 | 0 | – | – | – | – | – | – | – | – | – | – | –
CCOC(=O)c1ncc2[nH]c3ccc(OCc4ccccc4)cc3c2c1COC | 4.3 | 1 | 0.3 | – | – | > 10 µM | 99.8% | 97% | 90.6% | 79.1% | 63.7% | 110% | 89.2% | 96.6% | 104% | 70.9% | 91.9% | 97.3% | 87.9% | 93.5% | 85% | 9 | 3.1 | 1.27 µM | 102% | 105% | 101% | 69.5% | 14.1% | 96% | 94.9% | 99% | 90.9% | 64.7%
Nc1nc(O)c2nc(Br)n([C@@H]3O[C@@H]4COP(=O)(O)O[C@H]4[C@H]3O)c2n1 [8-bromo-cGMP] | – | 0 | – | – | > 10 µM | – | – | – | – | – | – | 105% | 94.3% | 107% | 90.5% | 113% | – | – | – | – | – | 0 | – | > 10 µM | 101% | 103% | 94.6% | 110% | 108% | – | – | – | – | –
COc1c(O[C@@H]2O[C@H](CO)[C@@H](O)[C@H](O)[C@H]2O)cc2c(c1OC)-c1ccc(SC)c(=O)cc1[C@@H](NC(C)=O)CC2 [thiocolchicoside] | 0 | 0 | 0 | > 10 µM | > 10 µM | > 10 µM | 96.1% | 96.4% | 82.7% | 102% | 94.5% | 102% | 93.2% | 98.7% | 102% | 97.8% | 102% | 104% | 99.1% | 106% | 103% | 0 | – | > 10 µM | 97% | 100% | 91.4% | 97.2% | 90.9% | – | – | – | – | –
CC(=O)NS(=O)(=O)c1ccc(N)cc1 [sulfacetamide] | – | 0 | 0 | – | – | – | – | – | – | – | – | – | – | – | – | – | – | – | – | – | – | 0 | – | – | – | – | – | – | – | – | – | – | – | –
COc1cc2nccc(Oc3ccc(NC(=O)C4(C(=O)Nc5ccc(F)cc5)CC4)cc3)c2cc1OC [cabozantinib] | 6.3 | 5.3 | 2.8 | 1.47 µM | 1.75 µM | 3.07 µM | 93% | 97.4% | 96.7% | 82% | 35% | 94.2% | 109% | 100% | 88.1% | 39.2% | 101% | 98% | 97.2% | 99.3% | 48% | 3.1 | 2.8 | 3.02 µM | 107% | 92.6% | 97.1% | 98.9% | 44.4% | 103% | 104% | 99% | 98.3% | 50.1%
CCCN1CC(NS(=O)(=O)N(CC)CC)CC2Cc3c(O)cccc3CC21 (stereo not given) [quinagolide] | 0 | 0.3 | – | > 10 µM | > 10 µM | – | 107% | 104% | 106% | 98.9% | 96.3% | 85.9% | 110% | 95.8% | 97.5% | 86.1% | – | – | – | – | – | – | – | – | – | – | – | – | – | – | – | – | – | –
CCN(CC)CCOC(=O)C(c1ccccc1)c1ccccc1 [adiphenine] | 0 | 0 | 0 | > 10 µM | > 10 µM | > 10 µM | 105% | 102% | 95.1% | 98.3% | 103% | 109% | 113% | 97% | 104% | 124% | 111% | 116% | 105% | 107% | 99.2% | 0 | – | > 10 µM | 103% | 109% | 106% | 113% | 99.1% | – | – | – | – | –
CNS(=O)(=O)Nc1nccc(Cc2c(C)c3ccc(Oc4ncccn4)cc3oc2=O)c1F | 6.7 | 13.1 | 10.9 | – | 0.116 µM | – | 99.8% | 89.4% | 82.9% | 73.4% | 62.5% | 105% | 96% | 70.8% | 50.1% | 40.8% | 94.6% | 92.9% | 75.4% | 57% | 50.3% | 23.5 | 2.5 | 0.0515 µM | 101% | 91.8% | 38.3% | 23.8% | 13.8% | 98.2% | 97.9% | 94.3% | 85.7% | 70.8%
